Experimental data reported in patent US10669261B2, “Heteroarylhydroxypyrimidinones as agonists of the APJ receptor” (BRISTOL-MYERS SQUIBB COMPANY, priority 2015, dated 2020).
pEC50: −log10 of the molar value.

The compounds below were run against T1, human APJ receptor (Homo sapiens, UniProt P35414) (assay: Intracellular cAMP accumulation assay (APJ hcAMP, HTRF)). Conditions: HEK293 cells stably expressing human APJ receptor; inhibition of forskolin-mediated cAMP production; stated at end of example; read-out: Human APJ cAMP Potency Range.
T1 construct: expressed in transfected cells
T1 sequence (P35414 1-380): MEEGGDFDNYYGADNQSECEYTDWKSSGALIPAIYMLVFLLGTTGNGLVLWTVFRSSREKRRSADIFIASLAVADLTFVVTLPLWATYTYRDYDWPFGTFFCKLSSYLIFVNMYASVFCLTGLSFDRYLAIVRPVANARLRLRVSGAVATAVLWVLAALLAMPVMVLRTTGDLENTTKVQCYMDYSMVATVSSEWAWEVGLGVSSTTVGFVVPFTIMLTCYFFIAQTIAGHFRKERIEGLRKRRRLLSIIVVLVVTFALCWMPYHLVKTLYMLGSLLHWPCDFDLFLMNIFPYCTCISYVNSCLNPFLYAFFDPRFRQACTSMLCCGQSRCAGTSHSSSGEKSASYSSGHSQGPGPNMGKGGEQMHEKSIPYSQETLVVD
Assay type: cell-based
How it was run: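 Inhibition of forskolin (2 μM)-driven cAMP, with […], measured by HTRF after 30 min room-temperature compound exposure of stably transfected HEK293 cells. cAMP read from a standard curve; variable-slope fit gives EC50, and maximal inhibition is normalised to (Pyr1)apelin-13 as 100%.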

Structure (SMILES) | pEC50
CCCCc1nc(O)c(-c2nnc(Cc3noc4ccccc34)o2)c(=O)n1[C@@H](CC)c1ccccc1 [Example 74, (S)-5-(5-(Benzo[d]isoxazol-3-ylmethyl)-1,3,4-oxadiazol-2-yl)-2-butyl-6-hydroxy-3-(1-phenylpropyl)pyrimidin-4(3H)-one] | 8.00 to 11.00

Same assay, conditions: Table 1; HEK293 cells stably expressing human APJ receptor; read-out: hAPJ cAMP EC50 Potency range

Structure (SMILES) | pEC50
COc1cccc(OC)c1-n1c(C2CCC2)nc(=O)c(-c2nnc(CN3CCCC3=O)o2)c1O [Example 72, 2-cyclobutyl-1-(2,6-dimethoxyphenyl)-6-hydroxy-5-{5-[(2-oxopyrrolidin-1-yl)methyl]-1,3,4-oxadiazol-2-yl}-1,4-dihydropyrimidin-4-one] | 8.00 to 11.00
COc1cccc(OC)c1-n1c(C2CCC2)nc(=O)c(-c2nnc(Cc3csc(C)n3)o2)c1O [Example 73, 2-cyclobutyl-1-(2,6-dimethoxyphenyl)-6-hydroxy-5-{5-[(2-methyl-1,3-thiazol-4-yl)methyl]-1,3,4-oxadiazol-2-yl}-1,4-dihydropyrimidin-4-one] | 8.00 to 11.00

Same assay, conditions: Table 2; HEK293 cells stably expressing human APJ receptor; read-out: hAPJ cAMP EC50 Potency range

Structure (SMILES) | pEC50
CCCCc1nc(O)c(-c2nnc(Cc3csc(C)n3)o2)c(=O)n1[C@@H](C)c1ccccc1 [Example 76, 2-butyl-6-hydroxy-5-{5-[(2-methyl-1,3-thiazol-4-yl)methyl]-1,3,4-oxadiazol-2-yl}-3-[(1S)-1-phenylethyl]-3,4-dihydropyrimidin-4-one] | 8.00 to 11.00
CCCCc1nc(O)c(-c2nnc(Cc3ccc(Cl)cc3)o2)c(=O)n1[C@@H](C)C1CC1 [Example 77, 2-butyl-5-{5-[(4-chlorophenyl)methyl]-1,3,4-oxadiazol-2-yl}-3-[(1S)-1-cyclopropylethyl]-6-hydroxy-3,4-dihydropyrimidin-4-one] | 6.52 to 7.00
CCCCc1nc(O)c(-c2nnc(Cc3csc(C)n3)o2)c(=O)n1[C@H](C)c1ccccc1OC [Example 79, 2-butyl-6-hydroxy-3-[(1R)-1-(2-methoxyphenyl)ethyl]-5-{5-[(2-methyl-1,3-thiazol-4-yl)methyl]-1,3,4-oxadiazol-2-yl}-3,4-dihydropyrimidin-4-one] | 8.00 to 11.00
CCCCc1nc(O)c(-c2nnc(Cc3csc(C)n3)o2)c(=O)n1[C@H](C)C1CC1 [Example 80, 2-butyl-3-[(1R)-1-cyclopropylethyl]-6-hydroxy-5-{5-[(2-methyl-1,3-thiazol-4-yl)methyl]-1,3,4-oxadiazol-2-yl}-3,4-dihydropyrimidin-4-one] | 6.52 to 7.00
CCCCc1nc(O)c(-c2nnc(Cc3ccc(Cl)cc3)o2)c(=O)n1[C@H](C)c1ccccc1OC [Example 81, 2-butyl-5-{5-[(4-chlorophenyl)methyl]-1,3,4-oxadiazol-2-yl}-6-hydroxy-3-[(1R)-1-(2-methoxyphenyl)ethyl]-3,4-dihydropyrimidin-4-one] | 7.00 to 8.00
CCCCc1nc(O)c(-c2nnc(Cc3csc(C)n3)o2)c(=O)n1[C@H](C)c1ccccc1 [Example 82, 2-butyl-6-hydroxy-5-{5-[(2-methyl-1,3-thiazol-4-yl)methyl]-1,3,4-oxadiazol-2-yl}-3-[(1R)-1-phenylethyl]-3,4-dihydropyrimidin-4-one] | 7.00 to 8.00
CCCCc1nc(O)c(-c2nnc(Cc3ccc(Cl)cc3)o2)c(=O)n1[C@@H](CC)c1ccccc1 [Example 84, 2-butyl-5-{5-[(4-chlorophenyl)methyl]-1,3,4-oxadiazol-2-yl}-6-hydroxy-3-[(1S)-1-phenylpropyl]-3,4-dihydropyrimidin-4-one] | 7.00 to 8.00
CCCCc1nc(O)c(-c2nnc(Cc3csc(C)n3)o2)c(=O)n1[C@@H](CC)c1ccccc1 [Example 85, 2-butyl-6-hydroxy-5-{5-[(2-methyl-1,3-thiazol-4-yl)methyl]-1,3,4-oxadiazol-2-yl}-3-[(1S)-1-phenylpropyl]-3,4-dihydropyrimidin-4-one] | 8.00 to 11.00
CCCCc1nc(O)c(-c2nnc(Cc3csc(C)n3)o2)c(=O)n1[C@H](CC)c1ccccc1 [Example 88] | 8.00 to 11.00
CCCCc1nc(O)c(-c2nnc(Cc3ccc(Cl)cc3)o2)c(=O)n1[C@H](CC)c1ccccc1 [Example 89, 2-butyl-5-{5-[(4-chlorophenyl)methyl]-1,3,4-oxadiazol-2-yl}-6-hydroxy-3-[(1R)-1-phenylpropyl]-3,4-dihydropyrimidin-4-one] | 7.00 to 8.00
CCCCc1nc(O)c(-c2nnc(Cc3csc(C)n3)o2)c(=O)n1[C@H](COC)c1ccccc1 [Example 93, 2-butyl-6-hydroxy-3-[(1S)-2-methoxy-1-phenylethyl]-5-{5-[(2-methyl-1,3-thiazol-4-yl)methyl]-1,3,4-oxadiazol-2-yl}-3,4-dihydropyrimidin-4-one] | 6.52 to 7.00
CCCCc1nc(O)c(-c2nnc(Cc3csc(C)n3)o2)c(=O)n1[C@@H](COC)c1ccccc1 [Example 94, 2-butyl-6-hydroxy-3-[(1R)-2-methoxy-1-phenylethyl]-5-{5-[(2-methyl-1,3-thiazol-4-yl)methyl]-1,3,4-oxadiazol-2-yl}-3,4-dihydropyrimidin-4-one] | 8.00 to 11.00
CCCCc1nc(O)c(-c2nnc(Cc3csc(C)n3)o2)c(=O)n1[C@@H](C)c1ccc(F)cc1 [Example 95, 2-butyl-3-[(1S)-1-(4-fluorophenyl)ethyl]-6-hydroxy-5-{5-[(2-methyl-1,3-thiazol-4-yl)methyl]-1,3,4-oxadiazol-2-yl}-3,4-dihydropyrimidin-4-one] | 7.00 to 8.00
CCCCc1nc(O)c(-c2nnc(Cc3ccc(Cl)cn3)o2)c(=O)n1[C@@H](C)c1ccc(F)cc1 [Example 98, 2-butyl-5-{5-[(5-chloropyridin-2-yl)methyl]-1,3,4-oxadiazol-2-yl}-3-[(1S)-1-(4-fluorophenyl)ethyl]-6-hydroxy-3,4-dihydropyrimidin-4-one] | 8.00 to 11.00
CCCCc1nc(O)c(-c2nnc(Cc3ccc(Cl)cn3)o2)c(=O)n1[C@H](COC)c1ccccc1 [Example 99] | 7.00 to 8.00

Further lines, results first:

pEC50 | Structure (SMILES)
7.00 to 8.00 | CCCCc1nc(O)c(-c2nnc(Cc3noc4ccccc34)o2)c(=O)n1[C@@H](C)c1ccccc1 [Example 75, 5-{5-[(1,2-benzoxazol-3-yl)methyl]-1,3,4-oxadiazol-2-yl}-2-butyl-6-hydroxy-3-[(1S)-1-phenylethyl]-3,4-dihydropyrimidin-4-one]
7.00 to 8.00 | CCCCc1nc(O)c(-c2nnc(Cc3noc4ccccc34)o2)c(=O)n1[C@H](C)c1ccccc1OC [Example 78, 5-{5-[(1,2-benzoxazol-3-yl)methyl]-1,3,4-oxadiazol-2-yl}-2-butyl-6-hydroxy-3-[(1R)-1-(2-methoxyphenyl)ethyl]-3,4-dihydropyrimidin-4-one]
7.00 to 8.00 | CCCCc1nc(O)c(-c2nnc(Cc3ccc(Cl)cc3)o2)c(=O)n1[C@H](C)c1ccccc1 [Example 83, 2-butyl-5-{5-[(4-chlorophenyl)methyl]-1,3,4-oxadiazol-2-yl}-6-hydroxy-3-[(1R)-1-phenylethyl]-3,4-dihydropyrimidin-4-one]
8.00 to 11.00 | CCCCc1nc(O)c(-c2nnc(Cc3noc4ccccc34)o2)c(=O)n1[C@H](C)c1ccccc1 [Example 86, 5-{5-[(1,2-benzoxazol-3-yl)methyl]-1,3,4-oxadiazol-2-yl}-2-butyl-6-hydroxy-3-[(1R)-1-phenylethyl]-3,4-dihydropyrimidin-4-one]
8.00 to 11.00 | CCCCc1nc(O)c(-c2nnc(Cc3noc4ccccc34)o2)c(=O)n1[C@H](CC)c1ccccc1 [Example 87, 5-{5-[(1,2-benzoxazol-3-yl)methyl]-1,3,4-oxadiazol-2-yl}-2-butyl-6-hydroxy-3-[(1R)-1-phenylpropyl]-3,4-dihydropyrimidin-4-one]
6.52 to 7.00 | CCCCc1nc(O)c(-c2nnc(Cc3noc4ccccc34)o2)c(=O)n1[C@H](COC)c1ccccc1 [Example 90, 5-{5-[(1,2-benzoxazol-3-yl)methyl]-1,3,4-oxadiazol-2-yl}-2-butyl-6-hydroxy-3-[(1S)-2-methoxy-1-phenylethyl]-3,4-dihydropyrimidin-4-one]
7.00 to 8.00 | CCCCc1nc(O)c(-c2nnc(Cc3noc4ccccc34)o2)c(=O)n1[C@@H](COC)c1ccccc1 [Example 91, 5-{5-[(1,2-benzoxazol-3-yl)methyl]-1,3,4-oxadiazol-2-yl}-2-butyl-6-hydroxy-3-[(1R)-2-methoxy-1-phenylethyl]-3,4-dihydropyrimidin-4-one]
6.52 to 7.00 | CCCCc1nc(O)c(-c2nnc(Cc3noc4ccccc34)o2)c(=O)n1[C@H]1CCCc2ccccc21 [Example 92, 5-{5-[(1,2-benzoxazol-3-yl)methyl]-1,3,4-oxadiazol-2-yl}-2-butyl-6-hydroxy-3-[(1S)-1,2,3,4-tetrahydronaphthalen-1-yl]-3,4-dihydropyrimidin-4-one]
7.00 to 8.00 | CCCCc1nc(O)c(-c2nnc(Cc3noc4ccccc34)o2)c(=O)n1[C@H]1CCc2ccccc21 [Example 96, 5-{5-[(1,2-benzoxazol-3-yl)methyl]-1,3,4-oxadiazol-2-yl}-2-butyl-3-[(1S)-2,3-dihydro-1H-inden-1-yl]-6-hydroxy-3,4-dihydropyrimidin-4-one]
8.00 to 11.00 | CCCCc1nc(O)c(-c2nnc(Cc3csc(C)n3)o2)c(=O)n1[C@H]1CCc2ccccc21 [Example 97, 2-butyl-3-[(1S)-2,3-dihydro-1H-inden-1-yl]-6-hydroxy-5-{5-[(2-methyl-1,3-thiazol-4-yl)methyl]-1,3,4-oxadiazol-2-yl}-3,4-dihydropyrimidin-4-one]
